According to US20250326794A1, “ANTI-CANCER LEUCINE-RICH PEPTIDES AND USES THEREOF” (KING'S COLLEGE LONDON, priority 2019, published 2025):
Read-outs that look alike come from different tables or passages of the source.

Experiments:
[1] = system: HEK293T (human embryonic kidney cell); experiment: cells
Description: (§1) HMLER (human mammary endothelial cancer cells), HMLER-shEcad (human mammary endothelial cancer stem cells), and MCF-10A (healthy human mammary endothelial) cells were maintained in Mammary Epithelial Cell Growth Medium (MEGM) with supplements and growth factors: bovine pituitary extract (BPE), hydrocortisone, human epidermal growth factor (hEGF), insulin, and gentamicin/amphotericin-B. HEK293T (human embryonic kidney cell), and U2OS (Homo sapiens bone osteosarcoma) cells were maintained in Dulbecco's Modified Eagle's Medium (DMEM) with a final concentration of 10% fetal bovine serum. The cells were grown in T75 flask at 310 K in a humidified atmosphere containing 5% CO2.
(§2) The colourimetric MTT (3-(4,5-dimethylthiazol-2-yl)-2,5-diphenyltetrazolium bromide) assay was used to determine the toxicity of the anticancer peptides and conventional anticancer drugs. 5×10^3 cells were seeded in each well of a 96-well microplate. The cells were incubated overnight. Elevated concentrations of the compounds (0, 0.1, 0.2, 0.4, 0.8, 1.6, 3.1, 6.3, 12.5, 25, 50 and 100 μM) were added and incubated for 72 hr with a total volume 200 μL. The stock solutions of the compounds were prepared as 5 mM solutions in DMSO and diluted using media or in pure water. The final concentration of DMSO in each well was either 0.5% or 0% and this amount was present in the untreated control. After 72 hr, 20 μL of a 4 mg/mL solution of MTT in PBS was added to each well, and the plate was incubated for an additional 4 hr. The MEGM/MTT mixture was aspirated and 100 μL of DMSO was added to dissolve the resulting purple formazan crystals. The absorbance of the solutions in each well was read at 550 nm wavelength. Absorbance values were normalized to either DMSO-containing or non DMSO-containing control wells and plotted as concentration of test compound versus % cell viability. IC50 values were interpolated from the resulting dose dependent curves.
(§3) The peptides were screened against several different human cell lines and their cytotoxicity were determined. Cell lines utilised include MCF-10A (human breast epithelial cell), HMLER (human breast cancer bulk cell), HMLER-shEcad (human breast cancer stem cell), HEK293T (human embryonic kidney cell), and U2OS (human bone osteosarcoma).

[2] = system: HMLER-shEcad (human breast cancer stem cell); experiment: cells
Description: as §1, §2, §3

[3] = system: HMLER (human breast cancer bulk cell); experiment: cells
Description: as §1, §2, §3

[4] = system: U2OS (human bone osteosarcoma)
Description: as §1, §2, §3

[5] = Tryptophan fluorescent binding assay, POPC vesicles; conditions: 50 μM peptide, PBS pH 7.4, lipid per peptide
Method: (§4) In brief, 50 μM peptides were fixed and incubated with titrated POPC vesicles (black) or 3POPC/1POPG vesicles (grey) at concentrations of 0, 12.5, 25, 50, 100, 250, 500, 1000, 2500, and 5000 μM in phosphate buffered saline (1×, pH 7.4). The lipid concentration that causes 50% peptide binding was determined using a tryptophan fluorescent binding assay and the values are shown as lipid per peptide.
(§5) The lipids 1-palmitoyl-2-oleoyl-sn-glycero-3-phosphocholine (POPC), 1-palmitoyl-2-oleoyl-snglycero-3-phospho-(1′-rac-glycerol) (POPG) were purchased from Avanti Polar Lipids and dissolved in chloroform. Large unilamellar vesicles (LUVs) were produced by extrusion through 100 nm pore filter using an extruder and filters purchased from Avanti Polar Lipids.
(§6) Peptides (50 μM) and POPC/POPG LUVs (600 μM) were prepared in 10 mM phosphate buffer (pH 7.0). The solutions were incubated and measured after 60 minutes. Excitation was fixed at 280 nm (slit 9 nm) and emission was collected from 300 to 450 nm (slit 9 nm). The spectra were recorded using a Synergy H1 Hybrid Multi-Mode Reader (FIG. 3A) and Cytation™ 5 Cell Imaging Multi-Mode Reader (FIG. 2) from BioTek and were averaged over 3 scans.
(§7) Table 3 illustrates the lipid concentration-induced 50% peptide binding onto a liposome. 50 μM peptide was fixed and incubated with titrated lipid (POPC vesicles or 3POPC/1POPG vesicles) at concentrations of 0, 12.5, 25, 50, 100, 250, 500, 1000, 2500, and 5000 μM in phosphate buffered saline (1×, pH 7.4). The lipid concentration that causes 50% peptide binding was determined using tryptophan fluorescent binding assay and the values are shown as lipid per peptide. †N-terminus is free, C-terminus: —W—NH2.

[6] = Tryptophan fluorescent binding assay, 3POPC/1POPG vesicles; conditions: 50 μM peptide, PBS pH 7.4, lipid per peptide
Method: as §4, §5, §6, §7

[7] = ANTS/DPX liposome leakage assay, 3POPC/1POPG vesicles; format: biochemical; conditions: 0.5 mM vesicles; for Peptide Concentration-induced 50% ANTS/DPX leakage at pH 4.8, 3POPC/1POPG Vesicle: pH 4.8, lipid per peptide; for Peptide Concentration-induced 50% ANTS/DPX leakage at pH 7.4, 3POPC/1POPG Vesicle: pH 7.4, lipid per peptide
Method: (§8) In brief, 0.5 mM POPC vesicles (grey) or POPC:POPG vesicles (ratio 3:1, black) were incubated with peptide concentrations of 0, 0.02, 0.04, 0.08, 0.16, 0.32, 0.64, 1.25, 2.5, 5, 10, and 20 μM in each A) hydrochloric acid-adjusted phosphate buffered saline (1×, pH 4.8) and B) phosphate buffered saline (1×, pH 7.4).
as §5
(§9) 5 mM ANTS (8-aminonaphthalene-1,3,6-trisulfonic acid, disodium salt) and 12.5 mM DPX (p-xylene-bis-pyridinium bromide) were entrapped in 0.1 μm diameter extruded vesicles with lipids. Gel filtration chromatography using a Sephadex G-100 (GE Healthcare Life Sciences Inc) was used to remove external free ANTS/DPX from LUVs with entrapped contents. LUVs were diluted to 0.5 mM and used to measure the leakage activity by addition of aliquots of peptides. Leakage was measured after 3 h incubation. 10% Triton was used as the positive control to measure the maximum leakage of the vesicle. Fluorescence emission spectra were recorded using excitation and emission wavelength of 350 nm and 510 nm for ANTS/DPX using a BioTek Synergy H1 Hybrid Multi-Mode Reader.
(§10) Table 4 illustrates peptide concentration-induced 50% ANTS/DPX liposome leakage. 0.5 mM POPC and 3POPC/1POPG vesicles were fixed and incubated with titrated peptide concentration ([…]) each in phosphate buffered saline (1×, pH 7.4) and hydrochloric acid-adjusted phosphate buffered saline (1×, pH 4.8). The values are shown as lipid per peptide. †N-terminus is free, C-terminus: —W—NH2.

[8] = ANTS/DPX liposome leakage assay, POPC vesicles; format: biochemical; conditions: 0.5 mM vesicles; for Peptide Concentration-induced 50% ANTS/DPX leakage at pH 4.8, POPC Vesicle: pH 4.8, lipid per peptide; for Peptide Concentration-induced 50% ANTS/DPX leakage at pH 7.4, POPC Vesicle: pH 7.4, lipid per peptide
Method: as §8, §5, §9, §10

| Structure (SMILES) | IC50 ([1]; 72 h) [µM] | IC50 ([2]; 72 h) [nM] | IC50 ([3]; 72 h) [nM] | IC50 ([4]; 72 h) [µM] | Lipid Concentration-induced 50% Peptide Binding, POPC Vesicle [5] [L/P] | Lipid Concentration-induced 50% Peptide Binding, 3POPC/1POPG Vesicle [6] [L/P] | Peptide Concentration-induced 50% ANTS/DPX leakage at pH 4.8, 3POPC/1POPG Vesicle [7] [L/P] | Peptide Concentration-induced 50% ANTS/DPX leakage at pH 7.4, 3POPC/1POPG Vesicle [7] [L/P] | Peptide Concentration-induced 50% ANTS/DPX leakage at pH 4.8, POPC Vesicle [8] [L/P] | Peptide Concentration-induced 50% ANTS/DPX leakage at pH 7.4, POPC Vesicle [8] [L/P] | IC50 ([1]; read-out: IC50 HEK293T, MTT, 72 hr) [µM] | IC50 ([2]; read-out: IC50 HMLER-shEcad, MTT, 72 hr) [nM] | IC50 ([3]; read-out: IC50 HMLER, MTT, 72 hr) [nM] | IC50 ([4]; read-out: IC50 U20S, MTT, 72 hr) [µM] |
| --- | --- | --- | --- | --- | --- | --- | --- | --- | --- | --- | --- | --- | --- | --- |
| CC(C)C[C@H](NC(=O)CN)C(=O)N[C@@H](CC(C)C)C(=O)N[C@@H](CCC(=O)O)C(=O)N[C@@H](CC(C)C)C(=O)N[C@@H](CC(C)C)C(=O)N[C@@H](CCCCN)C(=O)N[C@@H](CC(C)C)C(=O)N[C@@H](CC(C)C)C(=O)N[C@@H](CC(C)C)C(=O)N[C@@H](CCC(=O)O)C(=O)N[C@@H](C)C(=O)N[C@@H](C)C(=O)NCC(=O)N[C@@H](Cc1c[nH]c2ccccc12)C(N)=O [EKE] | 5.15 ± 0.21 | 1300 ± 140 | 1800 ± 280 | 8 ± 0.71 | 2.75 | 1.63 | 438 | 657 | 75 | 738 |  |  |  |  |
| CC(C)C[C@H](NC(=O)CN)C(=O)N[C@@H](CC(C)C)C(=O)N[C@@H](CCC(=O)O)C(=O)N[C@@H](CC(C)C)C(=O)N[C@@H](CC(C)C)C(=O)N[C@@H](CCCCN)C(=O)N[C@@H](CC(C)C)C(=O)N[C@@H](CC(C)C)C(=O)N[C@@H](CC(C)C)C(=O)N[C@@H](CCCCN)C(=O)N[C@@H](C)C(=O)N[C@@H](C)C(=O)NCC(=O)N[C@@H](Cc1c[nH]c2ccccc12)C(N)=O [EKK] | 3.35 ± 0.49 | 1190 ± 400 | 1720 ± 210 | 12.2 ± 1.84 | 1.50 | 0.63 | 219 | 235 | 60 | 1095 |  |  |  |  |
| CC(C)C[C@H](NC(=O)CN)C(=O)N[C@@H](CC(C)C)C(=O)N[C@@H](CC(=O)O)C(=O)N[C@@H](CC(C)C)C(=O)N[C@@H](CC(C)C)C(=O)N[C@@H](CCCCN)C(=O)N[C@@H](CC(C)C)C(=O)N[C@@H](CC(C)C)C(=O)N[C@@H](CC(C)C)C(=O)N[C@@H](Cc1c[nH]cn1)C(=O)N[C@@H](C)C(=O)N[C@@H](C)C(=O)NCC(=O)N[C@@H](Cc1c[nH]c2ccccc12)C(N)=O [DKH] | 6.15 ± 1.34 | 2800 ± 280 | 3450 ± 70 | 21.1 ± 3.01 | 10.00 | 0.46 | 58 | 274 | 41 | 614 |  |  |  |  |
| CC(C)C[C@H](NC(=O)CN)C(=O)N[C@@H](CC(C)C)C(=O)N[C@@H](CCCCN)C(=O)N[C@@H](CC(C)C)C(=O)N[C@@H](CC(C)C)C(=O)N[C@@H](Cc1c[nH]cn1)C(=O)N[C@@H](CC(C)C)C(=O)N[C@@H](CC(C)C)C(=O)N[C@@H](CC(C)C)C(=O)N[C@@H](CCC(=O)O)C(=O)N[C@@H](C)C(=O)N[C@@H](C)C(=O)NCC(=O)N[C@@H](Cc1c[nH]c2ccccc12)C(N)=O [KHE] | 26 ± 2.83 | 2920 ± 170 | 3700 ± 140 | 53 ± 2.83 | 0.88 | 0.71 | 156 | 188 | 183 | 981 |  |  |  |  |
| CC(C)C[C@H](NC(=O)CN)C(=O)N[C@@H](CC(C)C)C(=O)N[C@@H](Cc1c[nH]cn1)C(=O)N[C@@H](CC(C)C)C(=O)N[C@@H](CC(C)C)C(=O)N[C@@H](CCC(=O)O)C(=O)N[C@@H](CC(C)C)C(=O)N[C@@H](CC(C)C)C(=O)N[C@@H](CC(C)C)C(=O)N[C@@H](CCCCN)C(=O)N[C@@H](C)C(=O)N[C@@H](C)C(=O)NCC(=O)N[C@@H](Cc1c[nH]c2ccccc12)C(N)=O [HEK] | 6.95 ± 1.63 | 3450 ± 2190 | 2350 ± 1060 |  | 0.44 | 0.46 | 41. | 386 | 97 | 755 |  |  |  |  |
| CC(C)C[C@@H](NC(=O)CN)C(=O)N[C@H](CC(C)C)C(=O)N[C@H](CC(=O)O)C(=O)N[C@H](CC(C)C)C(=O)N[C@H](CC(C)C)C(=O)N[C@H](CCC(=O)O)C(=O)N[C@H](CC(C)C)C(=O)N[C@H](CC(C)C)C(=O)N[C@H](CC(C)C)C(=O)N[C@H](CCCCN)C(=O)N[C@H](C)C(=O)N[C@H](C)C(=O)NCC(=O)N[C@H](Cc1c[nH]c2ccccc12)C(N)=O [D-form DEK] | 3.28 ± 0.21 | 360 | 440 ± 100 | 5.84 ± 0.04 |  |  |  |  |  |  |  |  |  |  |
| CC(C)C[C@@H](NC(=O)CN)C(=O)N[C@H](CC(C)C)C(=O)N[C@H](CC(=O)O)C(=O)N[C@H](CC(C)C)C(=O)N[C@H](CC(C)C)C(=O)N[C@H](Cc1c[nH]cn1)C(=O)N[C@H](CC(C)C)C(=O)N[C@H](CC(C)C)C(=O)N[C@H](CC(C)C)C(=O)N[C@H](CCCCN)C(=O)N[C@H](C)C(=O)N[C@H](C)C(=O)NCC(=O)N[C@H](Cc1c[nH]c2ccccc12)C(N)=O [D-form DHK] |  |  |  |  |  |  |  |  |  |  | 1.55 ± 0.37 | 230 ± 40 | 320 ± 70 | 1.24 ± 0.03 |
